Source: patent publication US4668677A, “4-phenylphthalazine derivatives, their preparation and their use as pharmaceuticals” (Mitsubishi Chemical Industries Limited, priority 1984, dated 1987)
Structures can show the parent of a compound that is named as a salt.

What was measured:
[1] = system: blood platelets; assay: Activity to inhibit the aggregation of blood platelets (collagen, ex vivo after oral administration); assay type: in vivo, rat (male Wistar-ST strain); conditions: Rattus norvegicus, Platelet; 10 mg/Kg oral, 1 hour after administration; collagen 7 to 10 μg/ml; read-out: Inhibitory rate (blood platelet aggregation)
Method: Male Wistar-ST strain rats of an average body weight of 250 g were used, a group consisting of 8 animals. The test compound indicated in the following Table 1 was orally administered to rats in the form of a suspension in a 1% tragacanth aqueous solution at 4 ml/Kg (the test compound 10 mg/Kg).
One hour after the administration, blood samples were obtained from the carotid artery by means of a cannule. […] Tubes were turned upside-down and then subjected to centrifugation at 200×g over 15 minutes to assign the supernatant as a platelet-rich plasma (PRP). The residue was further centrifuged at […] over 15 minutes to assign the supernatant as a platelet-poor plasma (PPP). These supernatants were applied for determining the ability to aggregate blood platelets. […] As an aggregation inducing agent, collagen (availale from Hormon-chemie A.G.) was used at a concentration of 7 to 10 μg/ml.
Inhibitory rate to aggregate blood platelets was calculated according to the following equation: [formula] A: […] in the group to which the 1% tragacanth solution alone was given (Control)
B: Aggregation rate in the group to which the tragacanth solution of the test compound was given.

[2] = in vivo; conditions: rat, po, rats
[3] = system: femoral artery; assay: Action on blood flow volume in femoral artery; assay type: in vivo, rabbit (male New Zealand White)
Method: (§1) Male New Zealand White rabbits (body weight of 2.8 Kg to 3.5 Kg) were used and anesthetized with pentobarbital sodium. Blood flow volumes in the carotid artery and femoral artery were measured and recorded via a non-blood observing type of a probe for measuring blood flow volume. Also, blood pressure in femoral artery was simultaneously measured and recorded with measurement of blood flow.
(§2) The compound of this invention was dissolved in an aqueous solution containing 1% tartaric acid and 1% dimethylacetamide, while papaverine hydrochloride dissolved in 0.9% physiological saline. These test compounds were intravenously given through a residual polyethylene tube within femoral vein.

[4] = system: candate nucleus; assay: Activity to increase topical cerebral blood flow, candate nucleus (heat clearance method); assay type: in vivo, rabbit (male New Zealand White); conditions: change in blood flow expressed in terms of voltage
Method: as §2
(§3) Physiol. Scand., 67, 1 (1966); "Kokyu to Junkan" (in Japanese), 15, 435 (1967); the Journal of the Pharmacological Society of Japan, 71, 709 (1975)]. Simultaneously, blood pressure in femoral artery was also determined. Preparation and administration of test compounds were carried out in the same manner as in the above item (6).

[5] = system: cerebral cortex; assay: Activity to increase topical cerebral blood flow, cerebral cortex (heat clearance method); assay type: in vivo, rabbit (male New Zealand White); conditions: change in blood flow expressed in terms of voltage
Method: as §2, §3

[6] = system: femoral artery; assay: Action on blood pressure in femoral artery; assay type: in vivo, rabbit (male New Zealand White)
Method: as §1, §2

[7] = system: carotid artery; assay: Action on blood flow volume in carotid artery; assay type: in vivo, rabbit (male New Zealand White)
Method: as §1, §2

[8] = system: Thoracic aorta; assay: Calcium antagonistic activity (relaxation of thoracic aorta); assay type: cell-based, rat (male Wistar strain); conditions: Rattus norvegicus; final concentration 10 μM; 10 mM CaCl2
Method: Thoracic aorta was removed from male Wistar strain rats with a body weight of 350 g to 450 g and then spiral-shaped pieces of aorta were prepared therefrom. […] Thereafter, samples were further stabilized in Krebs-Henseleit solution containing no CaCl2 over 1 hour and then in a 80 mM KCl nutritive liquid wherein NaCl was exchanged with an equimolar KCl (depolarized liquid) over a further one hour. Then, samples were washed with the depolarized liquid and loaded with a static tension of 1.0 g. When CaCl2 was added to the nutritive liquid so as to reach a final concentration of 10 mM, tension was produced in samples and, after 15-20 minutes from the addition of CaCl2, the maximum tension was obtained. At this point, test compounds were applied and relaxing activity of test compounds was evaluated. Tension was determined in equal dimension.
Relaxation rate was calculated according to the following equation: [formula] A: Maximum tension generated B: Generated tension retained after administration of test compound
All test compounds were given in the form of a solution in dimethyl sulfoxide at a dose of 0.1 ml, whereupon a final concentration of dimethyl sulfoxide itself was adjusted to 0.5 V/V %.

[9] = system: femoral artery; assay: Blood pressure in femoral artery, topical cerebral blood flow test; assay type: in vivo, rabbit (male New Zealand White)
Method: as §2, §3

[10] = system: mice; assay: Anti-thrombotic activity: arachidonic acid-induced mortality in mice; assay type: in vivo, mouse (male ICR-JCL strain); conditions: for Survival time of dead mice: arachidonic acid 100 mg/Kg i.v.; for Mortality: arachidonic acid 100 mg/Kg i.v. after 1 hour
Method: (§4) Male ICR-JCL strain mice with an average body weight of about 25 g and male New Zealand White rabbits with an average body weight of about 3 Kg were used.
Where mice were used as experimental animals, a suspension of the test compound indicated in Table 3 in a 1% tragacanth aqueous solution was orally administered to animals at 20 ml/Kg. One hour after the administration, an arachidonic acid (PL-biochemical Co., Inc.) solution dissolved in a 0.1M sodium carbonate aqueous solution was intravenously given at 100 mg/Kg. Evaluation of activity was effected with the time from the administration of arachidonic acid up to the death of animals as well as mortality.

[11] = system: rabbits; assay: Anti-thrombotic activity: arachidonic acid-induced mortality in rabbits; assay type: in vivo, rabbit (male New Zealand White); conditions: of 4 rabbits
Method: as §4
Where rabbits were used as experimental animals, a suspension of the test compound in a 1% tragacanth aqueous solution was orally administered to animals at 5 ml/Kg. Two hours after the administration, an arachidonic acid solution dissolved in a 0.1M potassium carbonate solution was injected into pinna vein at 1.4 mg/Kg.
Evaluation of activity was effected with mortality at the time when arachidonic acid given. If survived at the first administration of arachidonic acid, arachidonic acid was administered after 6 hours, 24 hours, 48 hours and 72 hours from the administration of the test compound, respectively, and mortality was determined in respective cases.

## CCC(CC)CNc1nnc(-c2ccccc2)c2ccccc12 [compound 15]
[1]
  inhibition at 10 mg/kg: 14.6%

## CCCCCCNc1nnc(-c2ccccc2)c2ccccc12 [compound 14]
[1]
  inhibition at 10 mg/kg: 15.6%

## CC(C)C(C)Nc1nnc(-c2ccccc2)c2ccccc12 (stereo not shown) [compound 10]
[2]
  LD50: 2530 mg/kg
[1]
  inhibition at 10 mg/kg: 54.1%

## c1ccc(-c2nnc(NC3CCCC3)c3ccccc23)cc1 [compound 13]
[1]
  inhibition at 10 mg/kg: 0%

## c1ccc(-c2nnc(NC3CCCCC3)c3ccccc23)cc1 [compound 18]
[1]
  inhibition at 10 mg/kg: 0%

## CC(C)(C)Nc1nnc(-c2ccccc2)c2ccccc12 [compound 6]
[1]
  inhibition at 10 mg/kg: 0%

## CCCCNc1nnc(-c2ccccc2)c2ccccc12 [compound 3]
[1]
  inhibition at 10 mg/kg: 0%

## CC(C)(C)CCNc1nnc(-c2ccccc2)c2ccccc12 [compound 17]
[1]
  inhibition at 10 mg/kg: 17.3%

## COc1ccc(Cc2nccc3cc(OC)c(OC)cc23)cc1OC [Papaverine hydrochloride, papaverine hydrochloride, reference compound]
[3]; 0.5 mg/Kg i.v.
  Blood flow volume in femoral artery, A: Before administration: 16.8 mL/min
  Blood flow volume in femoral artery, B: After administration: 23.0 mL/min
[3]; 0.5 mg/kg i.v.
  Blood flow volume in femoral artery, C: Increase degree: 6.1 mL/min
  Blood flow volume in femoral artery, D: Increase rate: 40.3%
[3]; 1.0 mg/Kg i.v.
  Blood flow volume in femoral artery, A: Before administration: 30.1 mL/min
  Blood flow volume in femoral artery, B: After administration: 40.0 mL/min
[3]; 1.0 mg/kg i.v.
  Blood flow volume in femoral artery, C: Increase degree: 9.8 mL/min
  Blood flow volume in femoral artery, D: Increase rate: 32.7%
[4]; 0.3 mg/Kg i.v.
  Increase in topical blood flow volume, Candate nucleus: 0.19 ± 0.04 Δ μV
[4]; 1 mg/Kg i.v.
  Increase in topical blood flow volume, Candate nucleus: 0.35 ± 0.07 Δ μV
[5]; 0.3 mg/Kg i.v.
  Increase in topical blood flow volume, Cerebral cortex: 0.57 ± 0.11 Δ μV
[5]; 1 mg/Kg i.v.
  Increase in topical blood flow volume, Cerebral cortex: 1.05 ± 0.21 Δ μV
[6]; 0.5 mg/kg i.v.
  Blood pressure in femoral artery, A: Before administration: 94.8 mmHg
  Blood pressure in femoral artery, B: After administration: 82.4 mmHg
  Blood pressure in femoral artery, E: Lowering degree: 12.4 mmHg
  Blood pressure in femoral artery, F: Lowering rate: 13.2%
[6]; 1.0 mg/kg i.v.
  Blood pressure in femoral artery, A: Before administration: 91.8 mmHg
  Blood pressure in femoral artery, B: After administration: 68.8 mmHg
  Blood pressure in femoral artery, E: Lowering degree: 23.1 mmHg
  Blood pressure in femoral artery, F: Lowering rate: 25.3%
[7]; 0.5 mg/Kg i.v.
  Blood flow volume in carotid artery, A: Before administration: 18.6 mL/min
  Blood flow volume in carotid artery, B: After administration: 38.7 mL/min
  Blood flow volume in carotid artery, C: Increase degree: 20.1 mL/min
  Blood flow volume in carotid artery, D: Increase rate: 108.3%
[7]; 1.0 mg/Kg i.v.
  Blood flow volume in carotid artery, A: Before administration: 19.3 mL/min
  Blood flow volume in carotid artery, B: After administration: 26.3 mL/min
  Blood flow volume in carotid artery, C: Increase degree: 7.0 mL/min
  Blood flow volume in carotid artery, D: Increase rate: 33.2%
[8]
  inhibition at 10 µM: 0%
[9]; 0.3 mg/Kg i.v.
  Lowering of blood pressure in femoral artery: 15.0 ± 1.2%
[9]; 1 mg/Kg i.v.
  Lowering of blood pressure in femoral artery: 20.8 ± 3.4%

## CC(C)CC(C)Nc1nnc(-c2ccccc2)c2ccccc12 (stereo not shown) [compound 16]
[1]
  inhibition at 10 mg/kg: 0%

## CCCNc1nnc(-c2ccccc2)c2ccccc12 [compound 1]
[1]
  inhibition at 10 mg/kg: 27.6%

## CCCCCCCNc1nnc(-c2ccccc2)c2ccccc12 [compound 19]
[1]
  inhibition at 10 mg/kg: 0%

## CC(C)CNc1nnc(-c2ccccc2)c2ccccc12 [compound 4]
[1]
  inhibition at 10 mg/kg: 0%

## CCCCCCCCNc1nnc(-c2ccccc2)c2ccccc12 [compound 20]
[1]
  inhibition at 10 mg/kg: 0%

## CCC(C)Nc1nnc(-c2ccccc2)c2ccccc12 (stereo not shown) [compound 5]
[1]
  inhibition at 10 mg/kg: 0%

## CC(C)Nc1nnc(-c2ccccc2)c2ccccc12 [compound 2]
[1]
  inhibition at 10 mg/kg: 7.1%

## CCCCCNc1nnc(-c2ccccc2)c2ccccc12 [compound 7]
[2]
  LD50: 1780 mg/kg
[1]
  inhibition at 10 mg/kg: 6.2%

## CC(C)CCNc1nnc(-c2ccccc2)c2ccccc12 [compound 11]
[1]
  inhibition at 10 mg/kg: 24%

## CCCC(C)Nc1nnc(-c2ccccc2)c2ccccc12 (stereo not shown) [compound 8]
[1]
  inhibition at 10 mg/kg: 0%

## CCC(C)CNc1nnc(-c2ccccc2)c2ccccc12 (stereo not shown) [compound 9]
[2]
  LD50: 2180 mg/kg
[1]
  inhibition at 10 mg/kg: 79.2%

## CCC(C)(C)Nc1nnc(-c2ccccc2)c2ccccc12 [compound 12]
[1]
  inhibition at 10 mg/kg: 0%

## Clc1ccccc1CN1CCc2sccc2C1 [Ticlopidine, ticlopidine, reference compound]
[10]; 300 mg/Kg oral
  Survival time of dead mice: 81 ± 13 s
  Mortality: 100%
[10]; 1000 mg/Kg oral
  Survival time of dead mice: 128 ± 18 s
  Mortality: 100%
[11]; 30 mg/Kg oral, 2 hrs. after administration
  Mortality (number of rabbits): 4
[11]; 100 mg/Kg oral, 2 hrs. after administration
  Mortality (number of rabbits): 3
[11]; 100 mg/Kg oral, 6 hrs. after administration
  Mortality (number of rabbits): 1
